# Target: human PRMT8 (Homo sapiens, UniProt Q9NR22)
# Assay: PRMT8 Biochemical Assay (3H-SAM Flashplate, peptide substrate)
# Details: single experiment or average of multiple experiments
# Procedure, shortened: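 Methylation of a biotin-tagged histone H4 peptide (residues 31-45) by recombinant PRMT8 was measured as 3H transfer from 3H-SAM, after a 30 min room-temperature compound preincubation in Bicine buffer pH 7.6. Reactions were quenched with unlabelled SAM to 400 uM final, then bound counts were read by streptavidin Flashplate. IC50 came from a Hill fit of % inhibition relative to max and SAH min controls.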
# Chain of human PRMT8 (Q9NR22 whole entry): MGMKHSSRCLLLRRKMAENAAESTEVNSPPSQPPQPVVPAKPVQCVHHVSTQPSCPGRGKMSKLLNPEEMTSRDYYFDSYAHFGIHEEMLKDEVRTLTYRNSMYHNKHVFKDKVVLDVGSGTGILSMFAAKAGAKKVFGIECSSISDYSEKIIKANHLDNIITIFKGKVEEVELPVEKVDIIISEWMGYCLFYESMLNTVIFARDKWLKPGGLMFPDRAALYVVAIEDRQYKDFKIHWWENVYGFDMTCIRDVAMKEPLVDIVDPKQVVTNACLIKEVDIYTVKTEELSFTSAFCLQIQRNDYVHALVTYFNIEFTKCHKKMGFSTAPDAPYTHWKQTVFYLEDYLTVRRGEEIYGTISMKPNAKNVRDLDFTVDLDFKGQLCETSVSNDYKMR
row,SMILES,IC50
1,CNCCN(C)Cc1c[nH]nc1-c1cc(F)ccc1F [Compound 50],1.66 µM
2,CNCCN(C)Cc1c[nH]nc1-c1ccc(OC)cc1OC [Compound 55],3.19 µM
3,CNCCN(C)Cc1cn(CCCC(O)CO)nc1-c1ccc(F)cc1 (stereo not drawn) [Compound 30],> 50 µM
4,CNCCN(C)Cc1c[nH]nc1-c1ccc(Oc2ccccc2)cc1 [Compound 37],0.0576 µM
5,CNCCN(C)Cc1cn(CCC(O)CO)nc1-c1ccc(F)cc1 (stereo not drawn) [Compound 59],8.86 µM
6,"CNCCN(C)Cc1c[nH]nc1-c1ccc(F)cc1 [Compound 2, N^1-((3-(4-fluorophenyl)-1H-pyrazol-4-yl)methyl)-N^1,N^2-dimethylethane-1,2-diamine]",0.507 µM
7,CNCCN(C)Cc1c[nH]nc1-c1ccc(F)cc1F [Compound 49],0.749 µM
8,CNCCN(C)Cc1c[nH]nc1-c1ccccc1OC [Compound 23],3.29 µM
9,CN(CCN)Cc1c[nH]nc1-c1ccc(C#N)cc1 [Compound 68],0.404 µM
10,CNCCN(C)Cc1c[nH]nc1-c1cccc2ccccc12 [Compound 57],0.196 µM
11,CN(CCN)Cc1cnn(CCO)c1-c1ccc(F)cc1 [Compound 65],8.61 µM
12,CCN(CCN)Cc1c[nH]nc1-c1ccc(F)cc1 [Compound 62],0.362 µM
13,CCCN(CCN)Cc1c[nH]nc1-c1ccc(F)cc1 [Compound 63],8.03 µM
14,CNCCN(C)Cc1c[nH]nc1-c1ccccc1-c1ccccc1 [Compound 46],11.9 µM
15,CNCCN(C)Cc1cn(CC(=O)O)nc1-c1ccc(OC(C)C)cc1 [Compound 250],2.54 µM
16,CNCCN(C)Cc1c[nH]nc1-c1ccc(C)cc1C [Compound 29],2.31 µM
17,CNCCN(C)Cc1cnn(CCCC(O)CO)c1-c1ccc(F)cc1 (stereo not drawn) [Compound 31],6.31 µM
18,CN(CCN)Cc1cn(CCO)nc1-c1ccc(F)cc1 [Compound 66],8.75 µM
19,CNCCN(C)Cc1cnn(CC(=O)OC)c1-c1ccc(OC(C)C)cc1 [Compound 249],1.5 µM
20,CNCCN(C)Cc1c[nH]nc1-c1ccccc1C(F)(F)F [Compound 38],9.9 µM
21,CNCCN(C)Cc1c[nH]nc1-c1ccc(C(=O)c2ccccc2)cc1 [Compound 45],0.308 µM
22,CNCCN(C)Cc1c[nH]nc1-c1c(OC)cccc1OC [Compound 56],34.9 µM
23,CNCCN(C)Cc1cn(C2CCCCC2)nc1-c1ccc(OC(C)C)cc1 [Compound 256],2.65 µM

# The next lines start with the values.
row,IC50,SMILES
1,1.5 µM,CNCCN(C)Cc1c[nH]nc1-c1cccc(O)c1 [Compound 26]
2,0.0577 µM,CCCc1ccc(-c2n[nH]cc2CN(C)CCNC)cc1 [Compound 20]
3,0.184 µM,CNCCN(C)Cc1c[nH]nc1-c1ccc(F)c(F)c1 [Compound 51]
4,0.712 µM,CNCCN(C)Cc1c[nH]nc1-c1ccc(O)cc1 [Compound 27]
5,0.17 µM,CNCCN(C)Cc1c[nH]nc1-c1ccc2ccccc2c1 [Compound 58]
6,1.43 µM,CNCCN(C)Cc1c[nH]nc1-c1ccc(N)cc1 [Compound 33]
7,0.888 µM,CNCCN(C)Cc1c[nH]nc1-c1cccc(OC)c1 [Compound 24]
8,0.55 µM,CNCCN(C)Cc1c[nH]nc1-c1ccc(OC)cc1 [Compound 25]
9,2.24 µM,CNCCN(C)Cc1c[nH]nc1-c1cccc(C#N)c1 [Compound 22]
10,0.0955 µM,CNCCN(C)Cc1c[nH]nc1-c1ccc(CO)cc1 [Compound 28]
11,0.52 µM,CNCCN(C)Cc1c[nH]nc1-c1cccc([N+](=O)[O-])c1 [Compound 21]
12,0.219 µM,CNCCN(C)Cc1c[nH]nc1-c1ccc(OC)c(F)c1 [Compound 52]
13,2.26 µM,CCNC(=O)c1cccc(-c2n[nH]cc2CN(C)CCNC)c1 [Compound 43]

# From patent publication US9776972B2, “Pyrazole derivatives as arginine methyltransferase inhibitors and uses thereof” (priority 2013, dated 2017)
